Assay results from US20240083851A1 (priority 2020, published 2024).

Assays:
[1] = test system: phosphorylated forms of 43 kinases (ERK, Akt, WNK1); experiment: Phosphokinase antibody array in MSCs; type: cell-based, human; details: LAD 1 μM, 24 hours, compared to control DMSO
Method: To study a mechanism by which LAD differentiates MSCs into osteoblasts, related signaling was investigated.
MSCs cultured in an experimental DMEM culture medium were treated with LAD (1 μM) or the control compound (DMSO), and cultured for 24 hours. The cells were recovered, and an experiment was then performed according to a method specified in a phosphokinase antibody array kit (R&D Systems) containing antibodies that specifically recognize phosphorylated forms of 43 kinases. Then, samples were analyzed using an ImageJ (NIH, USA) program.

RUNX2 [2] = experiment: Change in expression of RUNX2 in MSCs (antibody staining, fluorescence microscope); type: cell-based, human; details: 0.001 μM (1 nM), once a day for 7 and 14 days, increased with concentration up to 0.1 μM
Description: (§1) Runt-related transcription factor 2 (RUNX2; core-binding factor alpha, Cbfa1) is the most important transcriptional regulatory factor for osteogenesis, and is known to be involved in osteoblast differentiation, matrix generation, and mineralization during the osteogenesis (Bruderer M, et al., Eur Cell Mater. 2014). Also, RUNX2 itself may be regulated by a bone morphogenetic protein (BMP), which is a type of cytokine (Sun J, et al., Mol Med Rep. 2015). Accordingly, it was confirmed whether LAD promotes the expression of an osteogenesis-related specific factor to induce osteogenesis.
(§2) MSCs were seeded in a 24-well plate at a concentration of 3×10^4 cells/well, and cultured for 24 hours. From the next day, the MSCs were treated with different concentrations (0.001 μM, 0.01 μM, and 0.1 μM) of LAD once a day for 7 days and 14 days. After the experiment was completed, the MSCs were stained with RUNX2 and BMP-2 antibodies, and observed using a fluorescence microscope.

RUNX2 [3] = experiment: RUNX2 expression in femurs of ovariectomized mice; type: in vivo; details: LAD oral, daily for 10 weeks
Description: (§3) An ability of LAD to treat osteoporosis was confirmed in an animal model of ovariectomized (OVX) mice commonly used as an animal model of osteoporosis.
(§4) As the positive control, parathyroid hormone (PTH)-based Forteo (Eli Lilly) used as an osteoporosis therapeutic agent through an osteogenesis-promoting mechanism, and alendronate-based Fosamax (Merck) serving as a bone resorption inhibitor, were subcutaneously administered. As the negative control, water (H2O) was orally administered, and LAD was orally administered at a concentration of 5 or 30 mg/kg (FIG. 8A). After the drug was administered daily for 10 weeks, the bone mineral density (BMD) was measured.
In Table 1, BMD represents bone mineral density, TV represents total volume, BV represents bone volume, Tb.Th represents trabecular thickness, and Tb.N represents trabecular number.

[4] = test system: ovariectomized (OVX) mice; experiment: Ovariectomized (OVX) mice model of osteoporosis, femur bone parameters; type: in vivo; details: daily for 10 weeks; for BMD: femur
Description: as §3, §4

BMP-2 = experiment: Change in expression of BMP2 in MSCs (antibody staining, fluorescence microscope); type: cell-based, human; details: 0.001 μM (1 nM), once a day for 7 and 14 days, increased with concentration up to 0.1 μM
Description: as §1, §2

osteocalcin = experiment: Change in expression of osteocalcin in MSCs (antibody staining, fluorescence microscope); type: cell-based, human; details: 0.001 μM, within 7 days, level similar to OIM-treated group
Method: Osteocalcin is expressed only in osteoblasts (Lee et al., Cell 2007), and is used as a useful biomarker for osteogenesis (Bharadwaj et al., Osteoporosis International., 2009).
An experiment was performed in the same manner as described in Experimental Example 1-2, and MSCs were then stained with an osteocalcin antibody, and observed using a fluorescence microscope.

MSCs = experiment: Osteoblast differentiation of MSCs with LAD plus kinase inhibitor (Alizarin Red); type: cell-based, human; details: LAD 1 μM combined with inhibitor (1 μM) of ERK, P38 or Akt, 3 weeks, compared to LAD alone
Method: To further study the mechanism by which LAD differentiates MSCs into osteoblasts, an experiment was performed using a kinase inhibitor.
After MSCs were cultured, the MSCs were simultaneously treated with a kinase inhibitor (1 μM) and LAD (1 μM). Next day, the medium was exchanged, and the MSCs were simultaneously treated again with the kinase inhibitor and LAD. This procedure was repeated for 3 weeks, and the MSCs were than stained with Alizarin Red.

[5] = test system: phosphorylated ERK (pERK); experiment: ERK phosphorylation in MSCs after LAD treatment; type: cell-based, human
Method: Accordingly, the level of phosphorylated ERK according to time elapsed after MSCs were treated with LAD was determined.
Also, to determine whether LAD induces the ERK phosphorylation for a long period, MSCs were treated with various concentrations (0.001, 0.01, and 0.1 μM) of LAD, and the level of phosphorylated ERK (pERK) was checked after 7 days and 14 days. […] In particular, it was confirmed that the level of phosphorylated ERK (pERK) increased to a level similar to that of the positive control (OIM) even at a low concentration.

RUNX2 [6] = experiment: Effect of ERK inhibitor on increase in RUNX2 expression by LAD in MSCs; type: cell-based, human
Method: ERK may induce the phosphorylation of RUNX2 to increase transcriptional activity and may be involved in stability to increase an amount of RUNX2 protein (Greenblatt et al., MB, Annu Rev Cell Dev Biol. 2013). Therefore, an increase in ERK phosphorylation by LAD may induce RUNX2 expression so that LAD can be involved in the differentiation of MSCs into osteoblasts. To verify this, an expression level of RUNX2 was determined after MSCs were treated with a combination of LAD (0.1 μM) and the ERK inhibitor PD98059 (50 μM).

[7] = OVX mice, positive control subcutaneous

## CCN1C[C@]2(OC(=O)c3ccccc3NC(C)=O)CC[C@H](OC)C34C1C(C[C@@H]32)C(=O)C[C@H](OC)[C@H]1C[C@@H]4C(=O)[C@H]1OC [LAD, (3S,6S,7S,9S,11S,16S)-1-ethyl-6,9,11-trimethoxy-8,13-dioxododecahydro-2H-3,6a,14-(epiethane[1,1,2]triyl)-7,10-methanocyclodeca[b]azocin-3(4H)-yl 2-acetaminobenzoate]
[1]
  phosphorylation of signaling molecules such as ERK, Akt, WNK1: strongly increased
RUNX2 [2]
  expression of RUNX2: strongly induced
RUNX2 [3]
  expression of RUNX2 in femurs: significantly increased
[4]; OVX mice, LAD 5 mg/kg oral
  BV: 1.009 mm^3
  BV/TV: 6.422%
  TV: 15.6 mm^3
  Tb. N: 0.8775 mm
  Tb. Th: 0.205 1/mm
  BMD: 0.2066 g/mL
[4]; OVX mice, LAD 30 mg/kg oral
  BV: 1.17 mm^3
  BV/TV: 7.036%
  TV: 16.58 mm^3
  Tb. N: 0.9485 mm
  Tb. Th: 0.0739 1/mm
  BMD: 0.2168 g/mL
[4]; OVX mice, LAD 5 or 30 mg/kg oral, versus water
  bone mineral density compared to the negative control: significantly increased
[4]; OVX mice, LAD oral versus Forteo subcutaneous
  effect on bone mineral density compared with Forteo: significantly superior to that of Forteo
[4]; ovariectomized mice, LAD oral
  osteogenesis in the femurs (tissue staining): induced osteogenesis
BMP-2
  expression of BMP-2: strongly induced
osteocalcin
  expression of osteocalcin: strongly induced
MSCs
  osteoblast differentiation ability of LAD (Alizarin Red): inhibited
[5]; MSCs, 0.001, 0.01 and 0.1 μM LAD, after 7 days and 14 days, similar to OIM even at low concentration
  level of phosphorylated ERK (pERK): significantly increased
[5]; MSCs, 24 hours after LAD treatment
  level of phosphorylated ERK (pERK): increased
[5]; MSCs, within 30 minutes after LAD treatment
  level of phosphorylated ERK (pERK): significantly increased
RUNX2 [6]; LAD 0.1 μM alone, within 12 hours (same at 24 hours)
  expression of RUNX2: significantly increased

## COc1cccc(-c2cc(=O)c3ccccc3o2)c1N [PD98059, reference compound]
RUNX2 [6]; combination of LAD 0.1 μM and PD98059 50 μM, 12 hours (same at 24 hours)
  expression of RUNX2: significantly decreased

## NCCCC(O)(P(=O)(O)O)P(=O)(O)O [Fosamax, reference compound]
[4]; [7]
  BV: 1.017 mm^3
  BV/TV: 6.521%
  TV: 15.51 mm^3
  Tb. N: 0.9286 mm
  Tb. Th: 0.06994 1/mm
  BMD: 0.2145 g/mL

## CC[C@H](C)[C@H](NC(=O)[C@H](CCC(=O)O)NC(=O)[C@H](CO)NC(=O)[C@@H](NC(=O)[C@@H](N)CO)C(C)C)C(=O)N[C@@H](CCC(N)=O)C(=O)N[C@@H](CC(C)C)C(=O)N[C@@H](CCSC)C(=O)N[C@@H](Cc1cnc[nH]1)C(=O)N[C@@H](CC(N)=O)C(=O)N[C@@H](CC(C)C)C(=O)NCC(=O)N[C@@H](CCCCN)C(=O)N[C@@H](Cc1cnc[nH]1)C(=O)N[C@@H](CC(C)C)C(=O)N[C@@H](CC(N)=O)C(=O)N[C@@H](CO)C(=O)N[C@@H](CCSC)C(=O)N[C@@H](CCC(=O)O)C(=O)N[C@@H](CCCN=C(N)N)C(=O)N[C@H](C(=O)N[C@@H](CCC(=O)O)C(=O)N[C@@H](Cc1c[nH]c2ccccc12)C(=O)N[C@@H](CC(C)C)C(=O)N[C@@H](CCCN=C(N)N)C(=O)N[C@@H](CCCCN)C(=O)N[C@@H](CCCCN)C(=O)N[C@@H](CC(C)C)C(=O)N[C@@H](CCC(N)=O)C(=O)N[C@@H](CC(=O)O)C(=O)N[C@H](C(=O)N[C@@H](Cc1cnc[nH]1)C(=O)N[C@@H](CC(N)=O)C(=O)N[C@@H](Cc1ccccc1)C(=O)O)C(C)C)C(C)C [Forteo, reference compound]
[4]; [7]
  BV: 0.8791 mm^3
  BV/TV: 5.735%
  TV: 15.43 mm^3
  Tb. N: 0.8018 mm
  Tb. Th: 0.07112 1/mm
  BMD: 0.2013 g/mL
